From patent publication US9359341B2, “Aldehyde derivative of substitute oxazolidinones” (WANBURY LTD., priority 2012, dated 2016) come the findings set out here.

Data set [1] is described as follows: In vitro stability in human plasma. It counts as in vitro ADME. To be noted: conversion to rivaroxaban seen from zero min. As to the method: (§1) The final concentration of the test compound in the assay is 5 micromolar. […] C. The 100 microliters of aliquot at time point was removed and diluted with ice cold acetonitrile containing IS (200.mu·L) to stop the reactions. Samples are centrifuged at 10,000 RPM for 5 minutes to precipitate proteins. Supernatants are transferred to micro centrifuge tubes and stored at −20° C. for analysis of LC/MS/MS. The percent parent remaining of the test substance is calculated as ratio of peak area at each time point to peak area ratio at zero min, multiplied by 100.
(§2) API 4000, ESI Agilent 1100 column: Gemini Nx 100 mm×4.6 mm 5.1; column temperature: 30° C.; eluent A: 0.1% formic acid in water, eluent B: acetonitrile; gradient: 0-2.5 min 95% A, 5% B; 2.5-2.6 min 5% A, 95% B; 2.6-4.2 min 95% A, 5% B; flow rate: 0.8 ml/min; ESI. Q1:464.098, Q3:144.255

Data set [2] in a line: Permeability in caco2 system. Type of data set: in vitro ADME. To be noted: human, Caco-2, caco2 system.
The subject of data set [3] is caco2 system. The experiment in a line: Permeability in caco2 system. To be noted: caco2 system. It counts as in vitro ADME. On the technique in general: Passage across Caco-2 layers is used to estimate intestinal permeability.
Data set [4] is described as follows: In vitro stability in rat plasma. Type of data set: in vitro ADME. To be noted: conversion to rivaroxaban seen from zero min. Here is the method: as §1, §2
Data set [5] is described as follows: In vitro liver microsomal stability assay (rat). It counts as in vitro ADME. The settings on record: rat liver microsomes. Here is the method: Liver microsomal stability assays are conducted at 1 mg per mL liver microsome protein with an NADPH in phosphate buffer (100 mM, pH 7.4). Test compounds (compound of formula B of the invention) are prepared as solutions in 20% methanol-water and added to the assay mixture (final assay concentration 1 μM) and incubated at 37° C. Aliquots (100.μ·L) are taken out at times 0, 15, and 30 minutes, and diluted with ice cold acetonitrile containing IS (200.mu·L) to stop the reactions. Samples are centrifuged at 10,000 RPM for 5 minutes to precipitate proteins. Supernatants are transferred to micro centrifuge tubes and stored at −20° C. for analysis of LC/MS/MS. The percent parent remaining of the test substance is calculated as Ratio of peak area at each time point to peak area ratio at zero min, multiplied by 100. The compound formula (B) is converted to Rivaroxaban in microsomal assay.
Background: Microsomes from liver hold many membrane-bound enzymes, among them those of drug oxidation.

The nature of data set [6]: Intravenous and oral pharmacokinetics in Wistar rats. To be noted: for plasma exposure (AUC, C max) as compared to Rivaroxaban: Wistar rats, IV 1 mg/kg and PO 10 mg/kg. Type of data set: in vivo. As to the method: On the day before administration of the substance, a catheter for obtaining blood is implanted in the jugular vein of the experimental animals (male Wistar rats, body weight 200-250 g) under Isofluran® anesthesia.
Blood samples (8-12 time points) are taken through the catheter sequentially over the course of 24 h after administration of the substance. The administration volume is 10 ml/kg for oral and 1 ml/kg for IV in male Wistar rats. Intravenous administration is via a formulation of 2% N—N Dimethyl acetamide/ethanol 10%/PEG400 (30%)/water for IV injection (58%) and via Tween80/PEG400/sterile water in the case of oral administration. Removal of blood is after 0.08, 0.25, 0.5, 1, 2, 3, 4, 6, 8 and 12 hours in the case of IV and, blood withdrawn after 0.25, 0.5, 1.0, 2, 3, 4, 6, 8 and 12 hours for oral administration.
Plasma is obtained by centrifuging the samples in heparinized tubes. IS containing Acetonitrile is added to a defined plasma volume per time point to precipitate proteins. After centrifugation, compound formula (B) and, where appropriate, known cleavage products of the compound formula (B) in the supernatant are determined quantitatively using a suitable LC/MS-MS method.
The measured plasma concentrations are used to calculate pharmacokinetic parameters of the test substance and of the active ingredient compound (A) liberated there from, such as AUC, Cmax, T½ (half-life) and CL (clearance).
Acetonitrile containing IS is added to the study samples, calibration samples and QCs, and the protein is precipitated using acetonitrile. Vortexed and centrifuged at 4000 rpm and the supernatant is injected by LC-MS/MS (API 4000, AB Sciex). Chromatographic separation is carried out on an Shimadzu UFLC. The injection volume is 10 μl. The separation column used is a Phenomenex Gemini NX 4.6×5μ. 100 mm, adjusted to a temperature of 30° C. […]
The plasma concentration/time plots determined are used to calculate the pharmacokinetic parameters such as AUC, Cmax, MRT (mean residence time), t½ (half life) and CL (clearance) employing the validated pharmacokinetic calculation programs.

Read-outs that look alike come from different tables or passages of the source. Bounds are passed on as bounds.

A word on the Papp: it is a coefficient for how fast a substance crosses the barrier. For `O=CN(C[C@H]1CN(c2ccc(N3CCOCC3=O)cc2)C(=O)O1)C(=O)c1ccc(Cl)s1` [Compound formula B, 5-chloro-N-formyl-N-({(5S)-2-oxo-3-[4-(3-oxomorpholin-4-yl)phenyl]-1,3-oxazolidin-5-yl}methyl)thiophene-2-carboxamide], the “Conversion: amount of test product detected” value in data set [1] and in data set [4] was “min. Neglible” each time. The Papp is above 20 ×10⁻⁶ cm/s in data set [2] (read-out: Interpretation: permeability, classification based on Papp); 17.4 ×10⁻⁶ cm/s in data set [2] (read-out: Papp A > B); 40.3 ×10⁻⁶ cm/s in data set [2] (read-out: Papp B > A). Moreover, the “Interpretation: Pgp substrate (efflux of >2)” value in data set [3] is “observed to be a Pgp substrate”. The “Observation (metabolism; for Test Product: of the formed rivaroxaban)” value in data set [5] is listed as “shown metabolism”. In addition, the “amount of test product detected” value in data set [5] (metabolised to rivaroxaban from zero min) is on record as “min. Neglible”. For the same compound, the “plasma exposure (AUC, C max) as compared to Rivaroxaban” value is recorded as “increased exposure” in data set [6] and “higher” in data set [6] (listed as Test product). Moreover, the “detectability of test substance in plasma” value in data set [6] (after i.v. administration, at the first measurement point) is listed as “no longer detectable in plasma”.
